Assays:
EGFR-T790M/L858R = EGFR-T790M/L858R (Homo sapiens (Human), UniProt P00533, L858R/T790M); assay: Omnia biochemical assay, EGFR (T790M/L858R) active enzyme; conditions: for IC50: [EGFR-T790M/L858R]=2.5 nM, [ATP]=20 uM, 30 min pre-incubation; for Ratio WT/mutant: biochemical IC50, WT EGFR vs EGFR (T790M/L858R)
Description: (§1) Omnia Assay Protocol for Potency Assessment Against EGFR (WT) and EGFR (T790M/L858R) Active Enzymes
(§2) Below describes the biochemical assay protocol using EGFR-WT and EGFR-T790M/L858R.
(§3) The mechanics of the assay platform are best described by the vendor (Invitrogen, Carlsbad, Calif.) on their website at the following URL: www.invitrogen.com/content.cfm?pageid=11338 or www.invitrogen.com/site/us/en/home/Pro ducts-and-Services/Applications/Drug-Discovery/Target-and-Lead-Identification-and-Validation/KinaseBiology/KB-Misc/Biochemical-Assays/Omnia-Kinase-Assays.html.
(§4) Briefly, 10× stocks of EGFR-WT (PV3872) from Invitrogen and EGFR-T790M/L858R (40350) from BPS Bioscience, San Diego, Calif., 1.13×ATP (AS001A) and appropriate Tyr-Sox conjugated peptide substrates (KCZ1001) were prepared in 1× kinase reaction buffer consisting of 20 mM Tris, pH 7.5, 5 mM MgCl2, 1 mM EGTA, 5 mM β-glycerophosphate, 5% glycerol (10× stock, KB002A) and 0.2 mM DTT (DS001A). 5 μL of each enzyme were pre-incubated in a Corning (#3574) 384-well, white, non-binding surface microtiter plate (Corning, N.Y.) for 30 min. at 25° C. with a 0.5 μL volume of 50% DMSO and serially diluted compounds prepared in 50% DMSO. Kinase reactions were started with the addition of 45 μL of the ATP/Tyr-Sox peptide substrate mix and monitored every 71 seconds for 60 minutes at λex360/λem485 in a Synergy^4 plate reader from BioTek (Winooski, Vt.). At the conclusion of each assay, progress curves from each well were examined for linear reaction kinetics and fit statistics (R^2, 95% confidence interval, absolute sum of squares). Initial velocity (0 minutes to ˜30 minutes) from each reaction was determined from the slope of a plot of relative fluorescence units vs time (minutes) and then plotted against inhibitor concentration to estimate IC50 from log [Inhibitor] vs Response, Variable Slope model in GraphPad Prism from GraphPad Software (San Diego, Calif.).
(§5) [EGFR-WT]=5 nM, [ATP]=15 uM, [Y12-Sox]=5 uM (ATP KMapp˜12 uM); and [EGFR-T790M/L858R]=2.5 nM, [ATP]=20 uM, [Y12-Sox]=5 uM (ATP KMapp˜20 uM).

[1] = test system: HCC827 (delE746-A750 deletion mutation) cells; assay: Cell proliferation (CellTiter Glo, 72 hr) in HCC827 cells; assay type: cell-based, human; conditions: for GI50: Homo sapiens, HCC827 cells, 72 hr; for Ratio WT/mutant (HCC827): proliferation GI50, WT EGFR (A431) vs HCC827
Description: (§6) A431 human epidermoid carcinoma, H1975 human NSCLC and HCC827 human NSCLC adenocarcinoma cells were obtained from the American Type Culture Center (Manassas, Va.). A431 cells were grown in DMEM (Invitrogen, Carlsbad, Calif.) supplemented with 10% FBS (HyClone, South Logan, Utah) and 1% Penicillin-Streptomycin (P/S, Lonza, Walkersville, Md.). H1975 and HCC827 cells were grown in complete RPMI 1640 (Invitrogen) supplemented with 10% FBS and 1% P/S. All cells were maintained and propagated as monolayer cultures at 37° C. in a humidified 5% CO2 incubator.
(§7) Cells were plated in Growth Media supplemented with 5% FBS and 1% P/S at a density of 3,000 cells per well in 96 well tissue culture plates (Corning). Cells were allowed to settle down for 4 hr and then treated with 5, 1.25, 0.31, 0.078, 0.020 or 0.005 μM test compound for 72 hr. Cell viability was determined by CellTiter Glo (Promega, Madison, Wis.) and results were converted to cell numbers using a standard curve. Growth inhibition (GI50) values were determined by Graph Pad Prism.

H1975 tumor = H1975 tumor in vivo study; design: species or system nu/nu mice
Description: Female nu/nu mice were implanted with 1×10^7H1975 tumor cells in 50% Matrigel subcutaneously (0.2 ml injection volume) in the flank. Tumor measurements were recorded three times per week. Tumors were pair matched when they reached an average size of 100-150 mg. Group size was 10 mice. Test compound was administered intraperitoneal, 25 mg/kg or 50 mg/kg daily for 21 days. % Tumor inhibition was determined at 15 days and 18 days. Tumor volume was followed until tumors reached 1500 mm^3 or 60 days. Tumor inhibition value for I-1 was >80% for 25 mg/kg at both 15 and 18 days, and >90% for 50 mg/kg at both 15 and 18 days.

[2] = target: EGFR delE746-A750 mutation (HCC827 cells) (Homo sapiens (Human), UniProt P00533, DEL746-750); assay: Phospho-EGFR signaling (immunoblotting, 1 hr) in HCC827 cells; assay type: cell-based
Description: as §6
(§8) All primary antibodies were obtained from Cell Signaling (Danvers, Mass.) and used at 1:1000. Secondary antibodies were used at 1:10,000. Goat anti-mouse IgG IRDye 800CW antibody was obtained from LiCor Biosciences (Lincoln, Nebr.) and goat anti-rabbit IgG Alexa Fluor 680 was obtained from Invitrogen.
(§9) Cells were grown in 12-well plates (Corning, Coring, N.Y.) to 90% confluence and then incubated in low-serum (0.1% FBS) media for 16-18 hr. […]
(§10) Lysate protein concentrations were determined by BCA Assay (Pierce, Rockford, Ill.) and 50 ug of each lysate was separated by 4-12% gradient SDS-PAGE (Invitrogen), transferred to nitrocellulose membrane (Biorad, Hercules, Calif.) and probed with specific antibodies. Phospho-protein signals were quantitated using Odyssey Infrared Imaging (Li-Cor Biosciences). […]

WT EGFR (A431 cells) = WT EGFR (A431 cells) (Homo sapiens (Human), UniProt P00533); assay: Phospho-EGFR signaling (immunoblotting, 1 hr) in A431 cells; assay type: cell-based; conditions: 1 hr compound, EGF stimulated, phospho-EGFR (Y1068)
Description: as §6, §8, §9, §10

[3] = target: EGFR double mutation L858R/T790M (H1975 cells) (Homo sapiens (Human), UniProt P00533, L858R/T790M); assay: Phospho-EGFR signaling (immunoblotting, 1 hr) in H1975 cells; assay type: cell-based; conditions: for EC50: H1975 cells, 1 hr compound, phospho-EGFR (Y1068); for Ratio WT/mutant (H1975): signaling EC50, WT EGFR (A431) vs H1975
Description: as §6, §8
Cells were grown in 12-well plates (Corning, Coring, N.Y.) to 90% confluence and then incubated in low-serum (0.1% FBS) media for 16-18 hr. Cells were then treated with 5, 1.25, 0.31, 0.078, 0.020 or 0.005 μM test compound in low-serum (0.1% FBS) media for 1 hr. A431 cells were then stimulated with 50 ng/ml EGF (Peprotech, Rocky Hill, N.J.) for 15 min. After treatment, cell monolayers were washed with cold PBS (Invitrogen) and immediately lysed by scrapping into 60 uL cold Cell Extraction Buffer (Invitrogen) supplemented with Complete Protease inhibitors (Roche, Indianapolis, Ind.) and PhosphoSTOP (Roche) phosphatase inhibitors.
Lysate protein concentrations were determined by BCA Assay (Pierce, Rockford, Ill.) and 50 ug of each lysate was separated by 4-12% gradient SDS-PAGE (Invitrogen), transferred to nitrocellulose membrane (Biorad, Hercules, Calif.) and probed with specific antibodies. Phospho-protein signals were quantitated using Odyssey Infrared Imaging (Li-Cor Biosciences).
To assess phosphor-EGFR signaling, blots were probed with rabbit anti-Phospho-EGFR (Y1068) and mouse total anti-EGFR antibodies. Phospho-EGFR signal was normalized to total EGFR expression for each sample. Results are indicated as % DMSO control. Normalized data was fitted using a sigmoidal curve analysis program (Graph Pad Prism version 5) with variable Hill slope to determine the EC50 values.
The compound numbers recited in Table 3 correspond to the compound numbers in Table 1.

[4] = test system: H1975 (double mutation L858R/T790M) cells; assay: Cell proliferation (CellTiter Glo, 72 hr) in H1975 cells; assay type: cell-based, human; conditions: for GI50: Homo sapiens, NCI-H1975, H1975 cells, 72 hr; for Ratio WT/mutant (H1975): proliferation GI50, WT EGFR (A431) vs H1975
Description: as §6, §7

EGFR-WT = EGFR-WT (Homo sapiens (Human), UniProt P00533); assay: Omnia biochemical assay, EGFR (WT) active enzyme; conditions: [EGFR-WT]=5 nM, [ATP]=15 uM, 30 min pre-incubation
Description: as §1, §2, §3, §4, §5

WT-EGFR A431 cells = assay: Cell proliferation (CellTiter Glo, 72 hr) in A431 cells; assay type: cell-based; conditions: Homo sapiens, A-431
Description: as §6, §7

SMILES	IC50 (EGFR-T790M/L858R)	Ratio WT/mutant (EGFR-T790M/L858R)	GI50 [1]	Ratio WT/mutant (HCC827) [1]	Tumor inhibition value (H1975 tumor; 25 mg/kg intraperitoneal daily, at 15 days)	Tumor inhibition value (H1975 tumor; 25 mg/kg intraperitoneal daily, at 18 days)	Tumor inhibition value (H1975 tumor; 50 mg/kg intraperitoneal daily, at 15 days)	Tumor inhibition value (H1975 tumor; 50 mg/kg intraperitoneal daily, at 18 days)	EC50 ([2]; HCC827 cells, 1 hr compound, phospho-EGFR (Y1068))	Ratio WT/mutant (HCC827) ([2]; signaling EC50, WT EGFR (A431) vs HCC827)	EC50 (WT EGFR (A431 cells))	EC50 [3]	Ratio WT/mutant (H1975) [3]	GI50 [4]	Ratio WT/mutant (H1975) [4]	IC50 (EGFR-WT)	GI50 (WT-EGFR A431 cells)
C=CC(=O)Nc1cccc(Nc2nc(Nc3ccc(NC4CN(CCF)C4)cc3OC)ncc2C(F)(F)F)c1 [Compound I-1, N-(3-(2-(4-(1-(2-fluoroethyl)azetidin-3-ylamino)-2-methoxyphenylamino)-5-(trifluoromethyl)pyrimidin-4-ylamino)phenyl)acrylamide]	< 1 nM	>1	10 to 100 nM	>10	> 80%	> 80%	> 90%	> 90%	100 to 500 nM	>10	> 1000 nM	10 to 100 nM	>35	10 to 100 nM	>10	1 to 10 nM	500 to 1000 nM
C=CC(=O)Nc1cccc(Oc2nc(Nc3ccc(NC(C)C)cc3OC)ncc2Cl)c1 [Compound I-4, N-(3-(5-chloro-2-(4-(isopropylamino)-2-methoxyphenylamino)pyrimidin-4-yloxy)phenyl)acrylamide]	1 to 10 nM	>25	100 to 500 nM	>35										500 to 1000 nM	>1	30 to 100 nM	> 1000 nM
C=CC(=O)Nc1cccc(Nc2nc(Nc3ccc(NC(C)C)cc3OC)ncc2C(F)(F)F)c1 [Compound I-5, N-(3-(2-(4-(isopropylamino)-2-methoxyphenylamino)-5-(trifluoromethyl)pyrimidin-4-ylamino)phenyl)acrylamide]	< 1 nM	>20	100 to 500 nM	>5										100 to 500 nM	>1	10 to 30 nM	500 to 1000 nM
C=CC(=O)Nc1cccc(Nc2nc(Nc3ccc(NC4CN(C(C)=O)C4)cc3OC)ncc2C(F)(F)F)c1 [Compound I-2, N-(3-(2-(4-(1-acetylazetidin-3-ylamino)-2-methoxyphenylamino)-5-(trifluoromethyl)pyrimidin-4-ylamino)phenyl)acrylamide]	< 1 nM	>15	100 to 500 nM	>15										100 to 500 nM	>5	1 to 10 nM	> 1000 nM
C=CC(=O)Nc1cccc(Nc2nc(Nc3ccc(NC4CN(C(=O)OC(C)(C)C)C4)cc3OC)ncc2C(F)(F)F)c1 [Compound I-3, tert-butyl 3-(4-(4-(3-acrylamidophenylamino)-5-(trifluoromethyl)pyrimidin-2-ylamino)-3-methoxyphenylamino)azetidine-1-carboxylate]	1 to 10 nM	>50	10 to 100 nM	>20							> 1000 nM	100 to 500 nM	>10	100 to 500 nM	>5	100 to 300 nM	> 1000 nM
